Values after ≈ are worked out from the molar mass of the structure shown.
What was measured:
[1] = Aqueous solubility in buffer vs acetonitrile/water (1/1), LC-UV; assay type: physicochemical; details: kinetic from dmso stock, buffer pH 2.2, 24 h shaking, 2.5% DMSO
Experimental: The aqueous solubility of the compounds of the invention is determined by comparing the amount dissolved in buffer to the amount in an acetonitrile/water (1/1) solution. Starting from a 10 mM DMSO stock solution aliquots are diluted with acetonitrile/water (1/1) or buffer, respectively. After 24 h of shaking, the solutions are filtrated and analyzed by LC-UV. The amount dissolved in buffer is compared to the amount in the acetonitrile solution.
Solubility is usually being measured from 0.001 to 0.125 mg/mL at a DMSO concentration of 2.5%. If more than 90% of the compound is dissolved in buffer, the value is marked with “>”.

[2] = target: human GPR40 receptor (Homo sapiens, UniProt O14842); assay: IP1 accumulation measurements using the IPOne assay system (1321N1 cells stably expressing human GPR40 receptor); assay type: cell-based; details: 1321N1 cells expressing human GPR40, 1 h stimulation at 37° C.
Experimental: IP1 accumulation measurements using the IPOne assay system—1321N1 cells stably expressing human GPR40 receptor (Euroscreen, Belgium) are seeded 24 h before the assay in white 384-well plates in culture medium containing 10% FCS, 1% Na-Pyruvate and 400 μg/mL G418. IP1 is assayed according to the manufacturer's description (Cisbio Bioassays, France). In brief, the assay is started by substitution of the culture medium by stimulation buffer (Hepes 10 mM, CaCl2 1 mM, MgCl2 0.5 mM, KCl 4.2 mM, NaCl 146 mM, glucose 5.5 mM and LiCl 50 mM, pH 7.4). Cells are stimulated for 1 h at 37° C., 5% CO2 by addition of the compounds that are diluted in stimulation buffer containing LiCl. Assays are stopped by adding HTRF-conjugates (IP1-d2 and Anti-IP1 cryptate Tb) and lysis buffer, provided by the manufacturer. After an incubation time of 1 h at room temperature plates are measured using an EnVision™, Perkin Elmer. The obtained fluorescence ratios at 665/615 […] are then used to calculate the pEC50 values using Assay Explorer 3.3 Software (Accelrys, Inc.) by interpolation using an IP1 reference curve and subsequent sigmoidal curve fitting allowing for a variable hill slope.

[3] = target: T1, cytochrome P450 2C9-isoenzyme (Homo sapiens, UniProt P11712); assay: Inhibition of CYP-2C9 (hydroxylation of diclofenac, human liver microsomes); assay type: in vitro ADME; details: CYP-2C9, human liver microsomes, diclofenac 10 μM, 37° C.
T1 construct: from tissue; host or cells: human liver microsomes
Experimental: The inhibition of cytochrome P450 2C9-isoenzyme catalyzed hydroxylation of diclofenac by the test compound is assayed at 37° C. with human liver microsomes. All assays are carried out on a robotic system in 96 well plates. The final incubation volume contains TRIS buffer (0.1 M), MgCl2 (5 mM), human liver microsomes (0.1 mg/mL), diclofenac (10 μM) and the test compound at five different concentrations or no compound (high control) in duplicate (e.g., highest concentration 10-50 μM with subsequent serial 1:4 dilutions). Following a short preincubation period, reactions are started with the cofactor (NADPH, 1 mM) and stopped by cooling the incubation down to 8° C. and subsequently by addition of one volume of acetonitrile. An internal standard solution—the stable isotope ^13C6-hydroxydiclofenac—is added after quenching of incubations. Peak area analyte (=metabolite formed) and internal standard is determined by LC-MS/MS. The resulting peak area ratio analyte to internal standard in these incubations is compared to a control activity containing no test compound. Within each of the assay runs, the IC50 of a positive control inhibitor (sulfaphenazole) is determined. Experimental IC50 values are calculated by least square regression according to the following equation: % control activity=(100% control activity/(1+(I/IC50)S))−B with I=inhibitor concentration; S=slope factor; B=background activity (lower plateau of the inhibition curve)
(§1) If the inhibition of the reaction is already >50% at the lowest concentration of the test compound, the IC50 is assigned “<lowest concentration tested” (usually <0.4 μM). If the inhibition of the reaction is still <50% at the highest concentration of the test compound, the IC50 is assigned “>highest concentration tested” (usually >50 μM).

[4] = Chemical stability: degradation kinetics in acidic aqueous media (pH ca. 1.2), HPLC recovery; assay type: physicochemical; details: pH value of ca. 1.2 (acetonitrile/0.1 M aqueous HCl 2:3), 37° C.
Experimental: Degradation kinetics is used to simulate chemical stability of compounds in the acidic part of the gastro intestinal tract. […] Their application as medical drugs to treat human diseases is therefore less restricted and troublesome.
The chemical stability of the compounds of the invention at pH value of ca. 1.2 is determined as follows:
Compound is dissolved in an HPLC vial either in a mixture of acetonitrile/0.1 M aqueous HCl (2:3; pH ca. 1.2) or in a mixture of acetonitrile/McIlvaine buffer pH 7.4 (2:3) to get a concentration of approximately 0.25 mg/ml. The vial was then transferred into an HPLC autosampler system and maintained at a temperature of 37° C. A first sample is taken and injected immediately into a standard HPLC system with a UV DAD detector. Further samples are injected after 2, 4, 6, 8 and 10 hours. Amount of degraded compound is measured by determining the recovery rate of compound [%] for each injection using an HPLC standard gradient method. Therefore the peak area of the main peak for the first injection (AUt0) is determined and set as 100%. Peak area of the main peak is determined also for the further injections (AUtn, n=2, 4, 6, 8, 10) and expressed as fraction of (AUt0)/(AUtn, n=2, 4, 6, 8, 10) [%].

[5] = target: T2, cytochrome P450 2C8-isoenzyme (Homo sapiens, UniProt P10632); assay: Inhibition of CYP-2C8 (deethylation of amodiaquine, human liver microsomes); assay type: in vitro ADME; details: CYP-2C8, human liver microsomes, amodiaquine 1 μM, 37° C.
T2 construct: from tissue; host or cells: human liver microsomes
T2 sequence (P10632 1-490): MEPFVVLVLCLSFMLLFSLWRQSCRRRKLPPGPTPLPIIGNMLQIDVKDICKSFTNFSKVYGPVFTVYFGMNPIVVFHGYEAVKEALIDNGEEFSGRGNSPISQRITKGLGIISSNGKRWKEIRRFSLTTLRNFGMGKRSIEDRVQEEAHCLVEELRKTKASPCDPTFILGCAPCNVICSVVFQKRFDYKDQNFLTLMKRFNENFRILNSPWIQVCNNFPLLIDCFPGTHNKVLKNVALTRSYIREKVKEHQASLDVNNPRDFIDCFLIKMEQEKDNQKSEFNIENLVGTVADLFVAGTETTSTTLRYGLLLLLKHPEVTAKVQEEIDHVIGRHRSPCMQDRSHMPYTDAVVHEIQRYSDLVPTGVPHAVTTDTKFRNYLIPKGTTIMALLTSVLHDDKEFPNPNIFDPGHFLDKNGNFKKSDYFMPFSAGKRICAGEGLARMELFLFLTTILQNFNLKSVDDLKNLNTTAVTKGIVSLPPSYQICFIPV
Experimental: The inhibition of cytochrome P450 2C8-isoenzyme catalyzed deethylation of amodiaquine by the test compound is assayed at 37° C. with human liver microsomes. All assays are carried out on a robotic system in 96 well plates. The final incubation volume contains TRIS buffer (0.1 M), MgCl2 (5 mM), human liver microsomes (0.05 mg/mL), amodiaquine (1 μM) and the test compound at five different concentrations or no compound (high control) in duplicate (e.g. highest concentration 10-50 μM with subsequent serial 1:4 dilutions). Following a short preincubation period, reactions are started with the cofactor (NADPH, 1 mM) and stopped by cooling the incubation down to 8° C. and subsequently by addition of one volume of acetonitrile. An internal standard solution—the stable isotope d5-desethylamodiaquine—is added after quenching of incubations. Peak area analyte (=metabolite formed) and internal standard is determined by LC-MS/MS. The resulting peak area ratio analyte to internal standard in these incubations is compared to a control activity containing no test compound. Within each of the assay runs, the IC50 of a positive control inhibitor (Montelukast) is determined. Experimental IC50 values are calculated by least square regression according to the following equation: % control activity=(100% control activity/(1+(I/IC50)S))−B with I=inhibitor concentration; S=slope factor; B=background activity (lower plateau of the inhibition curve)
as §1

T1 sequence (P11712 whole entry): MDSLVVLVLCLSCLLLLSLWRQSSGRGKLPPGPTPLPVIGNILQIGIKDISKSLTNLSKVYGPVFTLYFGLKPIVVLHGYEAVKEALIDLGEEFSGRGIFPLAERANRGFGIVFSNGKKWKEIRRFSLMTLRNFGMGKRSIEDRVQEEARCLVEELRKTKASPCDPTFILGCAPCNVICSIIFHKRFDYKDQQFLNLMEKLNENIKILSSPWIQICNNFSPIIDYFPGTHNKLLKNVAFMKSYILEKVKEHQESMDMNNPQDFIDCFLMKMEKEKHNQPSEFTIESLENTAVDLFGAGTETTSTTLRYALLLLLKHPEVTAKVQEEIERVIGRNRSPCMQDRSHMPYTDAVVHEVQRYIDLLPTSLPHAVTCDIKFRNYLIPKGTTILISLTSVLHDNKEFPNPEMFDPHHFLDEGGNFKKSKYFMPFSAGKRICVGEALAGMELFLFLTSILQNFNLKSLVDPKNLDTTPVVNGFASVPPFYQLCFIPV
human GPR40 receptor, sequence (O14842 whole entry): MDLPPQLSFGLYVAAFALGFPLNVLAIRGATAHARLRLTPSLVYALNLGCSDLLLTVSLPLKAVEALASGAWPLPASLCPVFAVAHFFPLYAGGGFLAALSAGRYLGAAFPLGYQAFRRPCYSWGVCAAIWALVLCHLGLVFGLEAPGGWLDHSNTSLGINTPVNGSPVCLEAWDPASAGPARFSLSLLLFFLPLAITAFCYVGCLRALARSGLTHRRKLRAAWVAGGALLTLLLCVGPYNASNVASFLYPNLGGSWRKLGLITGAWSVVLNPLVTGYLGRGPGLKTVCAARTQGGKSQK

| Compound | solubility at 24 h [1] | EC50 [2] | IC50 [3] | Amount of degradation after 2 h [4] | IC50 [5] |
| --- | --- | --- | --- | --- | --- |
| Cc1cc(-c2ccnn2C)cc(C)c1-c1ccc(F)c2c1CC[C@H]2Nc1ccc([C@H]2C[C@@H]2C(=O)O)cn1 [Example 31] | 0.093 mg/mL (≈ 187 µM) | 0.031 µM | 27 µM | <0.5% | 9 µM |
| O=C(O)[C@H]1C[C@@H]1c1ccc(N[C@@H]2CCc3c(-c4c(Cl)cccc4Cl)ccc(F)c32)nc1 [Example 50] | 0.069 mg/mL (≈ 151 µM) | 0.013 µM | 22 µM | <1.0% | 21 µM |
| Cc1cc(C(=O)N(C)C)cc(C)c1-c1ccc(F)c2c1CC[C@H]2Nc1ccc([C@H]2C[C@@H]2C(=O)O)cn1 [Example 75] | 0.117 mg/mL (≈ 240 µM) | 0.186 µM | > 50 µM | <0.5% | > 50 µM |
| Cc1cc(O)cc(C)c1-c1ccc(F)c2c1CC[C@H]2Nc1ccc([C@H]2C[C@@H]2C(=O)O)cn1 [Example 41] | 0.103 mg/mL (≈ 238 µM) | 0.033 µM | > 50 µM | <1.5% | 34 µM |
| Cc1cc(C#N)cc(C)c1-c1ccc(F)c2c1CC[C@H]2Nc1ccc([C@H]2C[C@@H]2C(=O)O)cn1 [Example 20] | 0.066 mg/mL (≈ 149 µM) | 0.018 µM | 33 µM | <0.5% | 24 µM |
| CCc1cccc(CC)c1-c1ccc(F)c2c1CC[C@H]2Nc1ccc([C@H]2C[C@@H]2C(=O)O)cn1 [Example 23] | 0.075 mg/mL (≈ 169 µM) | 0.005 µM | 15 µM | <0.5% | 11 µM |
| Cc1cc(C(N)=O)cc(C)c1-c1ccc(F)c2c1CC[C@H]2Nc1ccc([C@H]2C[C@@H]2C(=O)O)cn1 [Example 21] | 0.083 mg/mL (≈ 181 µM) | 0.06 µM | > 50 µM | <0.5% | > 50 µM |
| COc1cc(F)c(-c2ccc(F)c3c2CC[C@H]3Nc2ccc([C@H]3C[C@@H]3C(=O)O)cn2)c(F)c1 [Example 56] | 0.073 mg/mL (≈ 161 µM) | 0.151 µM | 28 µM | <0.5% | 33 µM |
| Cc1cc(OCC2(O)CCOCC2)cc(C)c1-c1ccc(F)c2c1CC[C@H]2Nc1ccc([C@H]2C[C@@H]2C(=O)O)cn1 [Example 63] | 0.118 mg/mL (≈ 216 µM) | 0.02 µM | > 50 µM | <0.5% | > 50 µM |
| Cc1cc(OCC(C)(C)C#N)cc(C)c1-c1ccc(F)c2c1CC[C@H]2Nc1ccc([C@H]2C[C@@H]2C(=O)O)cn1 [Example 35] | 0.059 mg/mL (≈ 115 µM) | 0.023 µM | 34 µM | <0.5% | 18 µM |
| COc1cc(-c2cc(C)c(-c3ccc(F)c4c3CC[C@H]4Nc3ccc([C@H]4C[C@@H]4C(=O)O)cn3)c(C)c2)ccn1 [Example 72] | 0.101 mg/mL (≈ 193 µM) | 0.006 µM | 18 µM | <0.5% | 8 µM |
| Nc1cc(F)c(-c2ccc(F)c3c2CC[C@H]3Nc2ccc([C@H]3C[C@@H]3C(=O)O)cn2)c(F)c1 [Example 58] | 0.107 mg/mL (≈ 243 µM) | 0.462 µM | > 50 µM | <0.5% | > 50 µM |
| CNC(=O)c1cc(C)c(-c2ccc(F)c3c2CC[C@H]3Nc2ccc([C@H]3C[C@@H]3C(=O)O)cn2)c(C)c1 [Example 66] | 0.115 mg/mL (≈ 243 µM) | 0.039 µM | > 50 µM | <1.0% | > 50 µM |
| N#CC1(c2ccccc2-c2ccc(F)c3c2CC[C@H]3Nc2ccc([C@H]3C[C@@H]3C(=O)O)cn2)CC1 [Example 46] | 0.085 mg/mL (≈ 187 µM) | 0.629 µM | 9 µM | <0.5% | 32 µM |
| Cc1nc(-c2cc(C)c(-c3ccc(F)c4c3CC[C@H]4Nc3ccc([C@H]4C[C@@H]4C(=O)O)cn3)c(C)c2)no1 [Example 26] | 0.065 mg/mL (≈ 130 µM) | 0.004 µM | > 50 µM | <0.5% | 35 µM |

Source: patent US9617251B2, “Indanylaminopyridylcyclopropanecarboxylic acids, pharmaceutical compositions and uses thereof” (BOEHRINGER INGELHEIM INTERNATIONAL GMBH, priority 2015, dated 2017)
